# Legend:
# [1] = Aqueous solubility of the compound in PBS at pH 1.2; assay type: physicochemical
# [2] = Aqueous solubility of the compound in PBS at pH 7.4; assay type: physicochemical
# [3] = Apparent intrinsic clearance in human liver microsomes; assay type: ADME, Microsome; details: read-out: CLH(app)
smiles,measurement,setting,value
Cc1ncccc1Oc1ncnc(N2C3CC4CC2CC(C3)N4C(=O)OC2(C)CC2)c1C,solubility,[1],6800 µg/mL
same,solubility,[2],0.5 µg/mL
Cc1ncccc1Oc1ncnc(N2C3CC4CC2CC(C3)N4C(=O)OCC(C)C)c1C,CLint scaled,[3],> 30 mL/min/kg
